In publication PMC8294059, “Identification and Immune Assessment of T Cell Epitopes in Five Plasmodium falciparum Blood Stage Antigens to Facilitate Vaccine Candidate Selection and Optimization” (Frontiers in Immunology, 2021):
Read-outs that look alike come from different tables or passages of the source. Where a SMILES comes first, the peptide text is derived from it.

Assays:
[1] = target: HLA-DRB1*0701 (Homo sapiens, UniProt P01903+P01911, A100R/A102G/A103Q/D57E/D86V/E43K/F76Y/K127E/L162R/M171V/P40G/Q125H/Q99D/R33Q/R42Y/R54Q/S133A/S66F/T210M/V115G/Y107V/Y59L/Y89S); assay: biochemical; type: binding
Protocol: (§1) The binding assay conducted by EpiVax yields an indirect measure of peptide-MHC affinity as it utilizes a competition assay format per the methodology described in Steere et al. ([35]). […] Post incubation, the mixtures are moved to a 96-well plate coated with anti-HLA-DR antibody to capture HLA-peptide complexes. Time-resolved fluorescence measurement of the bound labeled reference peptide complex present in each mixture is detected with a europium-linked probe via fluorescent spectrophotometry using a SpectraMax M5 system. HLA binding affinity of each test peptide is expressed as the percent inhibition of reference peptide binding. Percent inhibition values (across the test peptide titration range) are used to calculate the half maximal inhibitory concentration (IC50) of each test peptide. For these studies, test peptides were assessed using a range of final concentrations from 100,000 nM to 100 nM. The panel of commercially-available HLA-DRB1 allele monomers used includes: *0101, *0301, *0401, *0701, *0801, *1101, *1301 and *1501. EpiVax established HLA-DRB1 binding affinity cutoffs were used to rank the IC50 values.
(§2) In vitro HLA binding assays (step 2 of workflow shown in Figure 1 ) were carried out with the synthesized peptides to verify the EpiMatrix outputs and provide a measure of accuracy for comparing in silico-predicted HLA-DRB1 allele binding to laboratory assessments of HLA-DRB1 allele binding. These assessments were conducted using a competition assay format whereby IC50 values were calculated based on the ability of the test peptide to compete with a labeled, high binding affinity reference peptide for HLA-DRB1 molecule binding. Sequences for the high affinity reference peptides and the negative control peptide, known not to bind any of the HLA-DRB1 molecules, are provided in Table S18 .

[2] = target: T1, HLA-DRB1*1501 (Homo sapiens, UniProt P01903+P01911); assay: biochemical; type: binding
T1 construct: purchased
Protocol: as §1, §2

[3] = target: T2, HLA-DRB1*0101 (Homo sapiens, UniProt P01903+P01911, A100R/D57E/F55L/F60I/F76Y/I96L/L162R/M171V/P40L/Q125E/R42F/V115G/Y59C); assay: biochemical; type: binding
T2 construct: purchased
Protocol: as §1, §2

[4] = target: HLA-DRB1*1301 (Homo sapiens, UniProt P01903+P01911, A100E/A169T/K41T/L162R/M171V/P40S/Q125H/Q178H/Q39Y/Q99D/R42S/S66N/T262R/W38E/Y61H); assay: biochemical; type: binding; details: read-out: DRB1*1301 IC50
Protocol: as §1, §2

[5] = target: HLA-DRB1*0801 (Homo sapiens, UniProt P01903+P01911, A100R/A103L/A169T/D86S/F76Y/H45Y/I96F/K41T/L162R/M171V/P40S/Q125H/Q178H/Q39Y/Q99D/R218S/R42G/S66Y/V115G/W38E); assay: biochemical; type: binding
Protocol: as §1, §2

[6] = target: HLA-A*0201 (Homo sapiens, UniProt P04439, D140Y/D185E/D98H/E176V/E277Q/G131W/G231S/I119V/I121R/I166T/I218V/L300P/L318F/N151K/N90K/P208A/P217A/Q86G/Q94H/R138H/R169H/T345S); assay: In vitro class I HLA binding assay (fluorescence polarization competition); details: allele A*0201; fluorescence polarization competition; read-out: IC50 (nM), in vitro HLA binding affinity
Protocol: A cell-free class I HLA binding assay that allows for in vitro quantification of peptide-HLA binding affinity in a competition format was used. In this assay, a fluorescently labeled, high binding, control peptide is loaded onto 384-well ½-area plates along with unlabeled experimental peptides. To remove endogenous peptides and render the HLA A and B molecules receptive to binding, HLA is heated at 53°C for 15 minutes and immediately added to the assay. The mixture is then allowed to stand for three days. Once the mixture has reached steady equilibrium (at 72 hours), displacement of the high binding control peptide is measured through fluorescence polarization. Binding of experimental peptides is expressed as the percent inhibition of the labeled control peptide (experimental fluorescence / control fluorescence, multiplied by 100). The percent inhibition values for each experimental peptide (across a range of molar concentrations) are used to calculate the concentration which inhibits 50% of the labeled control peptide’s specific binding. This value is referred to as the peptide’s IC50.

[7] = target: HLA-DRB1*1101 (Homo sapiens, UniProt P01903+P01911, A100R/A169T/A87E/I96F/K41T/L162R/M171V/P40S/Q125H/Q178H/Q39Y/Q99D/R42S/S66Y/T262R/V115G/W38E); assay: biochemical; type: binding; details: binding inhibition assay; NB = non-binder (no dose-dependent inhibition); read-out: DRB1*1101 IC50
Protocol: as §1, §2

[8] = binding inhibition assay, NB = non-binder (no dose-dependent inhibition), read-out: DRB1*0701 IC50
[9] = binding inhibition assay, NB = non-binder (no dose-dependent inhibition), read-out: DRB1*1501 IC50
[10] = binding inhibition assay, NB = non-binder (no dose-dependent inhibition), read-out: DRB1*0101 IC50
[11] = binding inhibition assay, NB = non-binder (no dose-dependent inhibition)
[12] = binding inhibition assay, NB = non-binder (no dose-dependent inhibition), read-out: DRB1*0801 IC50

Sequence of HLA-DRB1*1101 (P01903 26-254 limits assumed, other chains not shown): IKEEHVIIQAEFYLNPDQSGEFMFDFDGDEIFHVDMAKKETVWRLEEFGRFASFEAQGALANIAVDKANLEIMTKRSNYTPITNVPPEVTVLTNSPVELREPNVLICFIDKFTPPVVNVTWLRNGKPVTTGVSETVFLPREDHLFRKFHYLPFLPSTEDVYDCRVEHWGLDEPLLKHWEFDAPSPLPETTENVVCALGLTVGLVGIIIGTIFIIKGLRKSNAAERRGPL

CC[C@H](C)[C@H](NC(=O)[C@H](CCSC)NC(=O)[C@H](CO)NC(=O)[C@H](C)N)C(=O)N[C@@H](CCCCN)C(=O)N[C@@H](CO)C(=O)N[C@@H](C)C(=O)N[C@@H](Cc1ccccc1)C(=O)N[C@@H](CC(C)C)C(=O)N1CCC[C@H]1C(=O)N[C@H](C(=O)NCC(=O)N[C@@H](C)C(=O)N[C@@H](Cc1ccccc1)C(=O)N[C@@H](CCCCN)C(N)=O)[C@@H](C)O [AMA1_006B] (H-ASMIKSAFLPTGAFK-NH2)
IC50 [1, 8]: 1.52 µM
IC50 [2, 9]: 14.5 µM
IC50 [3, 10]: 3.22 µM
IC50 [4, 11]: > 100 µM

CC[C@H](C)[C@H](NC(=O)[C@H](CCSC)NC(=O)[C@H](CO)NC(=O)[C@H](C)NC(=O)[C@H](CC(N)=O)NC(=O)[C@H](CCCCN)NC(=O)[C@H](CC(N)=O)NC(=O)[C@H](CCCCN)NC(=O)[C@H](Cc1ccccc1)NC(=O)CNC(=O)[C@H](CCC(=O)O)NC(=O)[C@H](CCCCN)NC(C)=O)C(=O)N[C@@H](CCCCN)C(=O)N[C@@H](CO)C(=O)N[C@@H](C)C(=O)N[C@@H](Cc1ccccc1)C(=O)N[C@@H](CC(C)C)C(=O)N1CCC[C@H]1C(=O)N[C@H](C(=O)NCC(=O)N[C@@H](C)C(=O)N[C@@H](Cc1ccccc1)C(=O)N[C@@H](CCCCN)C(N)=O)[C@@H](C)O [AMA1_006C] (Ac-KEGFKNKNASMIKSAFLPTGAFK-NH2)
IC50 [5]: 50.4 µM
IC50 [1]: 1.29 µM
IC50 [2]: 2.04 µM
IC50 [3]: 1.2 µM
IC50 [4]: > 100 µM

CC[C@H](C)[C@H](NC(=O)[C@H](CO)NC(=O)[C@H](CO)NC(=O)[C@H](Cc1ccccc1)NC(=O)[C@H](CC(C)C)NC(=O)[C@@H](N)CC(N)=O)C(=O)N[C@@H](CCC(=O)O)C(=O)N[C@H](C(=O)N[C@H](C(=O)O)C(C)C)[C@@H](C)CC [AMA1_092] (H-NLFSSIEIV-OH)
IC50 [6]: 1550 nM

CSCC[C@H](NC(=O)[C@H](Cc1ccc(O)cc1)NC(=O)[C@H](CCC(=O)O)NC(=O)[C@@H](NC(=O)[C@H](Cc1c[nH]c2ccccc12)NC(=O)[C@@H]1CCCN1C(=O)[C@H](CC(N)=O)NC(=O)CNC(=O)[C@H](CCSC)NC(=O)[C@@H](N)Cc1ccc(O)cc1)[C@@H](C)O)C(=O)O [AMA1_105] (H-YMGNPWTEYM-OH)
IC50 [6]: 21400 nM

CC[C@H](C)[C@H](NC(=O)[C@H](CC(N)=O)NC(=O)[C@H](CC(N)=O)NC(=O)[C@H](CCCCN)NC(=O)[C@H](Cc1c[nH]cn1)NC(=O)[C@H](CCC(=O)O)NC(=O)[C@H](CO)NC(=O)[C@H](CC(C)C)NC(=O)[C@H](CCSC)NC(=O)[C@H](C)NC(=O)[C@H](CCC(=O)O)NC(=O)[C@H](Cc1c[nH]c2ccccc12)NC(=O)[C@H](CC(C)C)NC(=O)[C@H](CCCCN)NC(=O)[C@H](CCC(=O)O)NC(C)=O)C(=O)N[C@@H](CC(N)=O)C(=O)N[C@@H](CC(N)=O)C(N)=O [EBA175_008] (Ac-EKLWEAMLSEHKNNINN-NH2)
IC50 [2, 9]: 80.6 µM
IC50 [3, 10]: 5.61 µM
IC50 [7]: > 100 µM
IC50 [4, 11]: > 100 µM

CC[C@H](C)[C@H](NC(C)=O)C(=O)N[C@@H](CC(C)C)C(=O)N[C@@H](C)C(=O)N[C@H](C(=O)N[C@@H](C)C(=O)N[C@H](C(=O)N[C@@H](Cc1ccc(O)cc1)C(=O)N[C@@H](CCC(=O)O)C(=O)N[C@@H](CO)C(=O)N[C@@H](CCCNC(=N)N)C(=O)N[C@H](C(=O)N[C@@H](CC(C)C)C(=O)N[C@@H](CCCCN)C(=O)N[C@@H](CCCNC(=N)N)C(=O)N[C@@H](CCCCN)C(=O)N[C@@H](Cc1ccc(O)cc1)C(=O)N[C@@H](CCCCN)C(=O)N[C@@H](CC(N)=O)C(=O)N[C@@H](CCCCN)C(=O)N[C@@H](CC(=O)O)C(=O)N[C@@H](CC(=O)O)C(=O)N[C@@H](CCCCN)C(=O)N[C@@H](CCC(=O)O)C(N)=O)[C@@H](C)CC)[C@@H](C)CC)[C@@H](C)CC [EBA175_010] (Ac-ILAIAIYESRILKRKYKNKDDKE-NH2)
IC50 [5, 12]: 17.6 µM
IC50 [1, 8]: 6.27 µM
IC50 [2, 9]: 0.035 µM
IC50 [3, 10]: 0.27 µM
IC50 [7]: 44.2 µM
IC50 [4, 11]: 4.41 µM

CC[C@H](C)[C@H](NC(=O)[C@H](CO)NC(=O)[C@H](CCCCN)NC(=O)[C@H](Cc1ccccc1)NC(=O)[C@H](CCC(=O)O)NC(=O)[C@H](CO)NC(=O)[C@H](Cc1ccc(O)cc1)NC(=O)[C@H](CCSC)NC(=O)[C@H](CCCCN)NC(=O)[C@H](Cc1ccc(O)cc1)NC(=O)[C@H](CC(N)=O)NC(=O)[C@H](CC(N)=O)NC(=O)CNC(=O)[C@H](CCCCN)NC(=O)[C@H](CCC(N)=O)NC(=O)[C@H](Cc1ccc(O)cc1)NC(=O)[C@H](CCC(=O)O)NC(=O)[C@H](CCC(N)=O)NC(=O)[C@H](Cc1ccc(O)cc1)NC(C)=O)C(=O)N[C@@H](CCCCN)C(N)=O [EBA175_012] (Ac-YQEYQKGNNYKMYSEFKSIK-NH2)
IC50 [5, 12]: 33.2 µM
IC50 [1, 8]: 14 µM
IC50 [2, 9]: 29.4 µM
IC50 [3, 10]: 0.226 µM

CC[C@H](C)[C@H](NC(=O)[C@H](CC(C)C)NC(=O)[C@H](CCCCN)NC(=O)[C@H](CCCCN)NC(=O)[C@H](CCCCN)NC(=O)[C@H](CCCCN)NC(=O)[C@@H](NC(=O)[C@H](CC(N)=O)NC(=O)[C@H](Cc1ccc(O)cc1)NC(=O)[C@H](CCC(=O)O)NC(=O)[C@H](CC(=O)O)NC(C)=O)[C@@H](C)O)C(=O)N[C@@H](CCCCN)C(=O)N[C@@H](CS)C(=O)N[C@H](C(=O)N[C@@H](CCCCN)C(=O)N[C@@H](CC(N)=O)C(=O)N[C@@H](Cc1c[nH]cn1)C(=O)N[C@@H](CCC(=O)O)C(=O)N[C@@H](CC(N)=O)C(=O)N[C@@H](CC(=O)O)C(=O)N[C@@H](Cc1ccccc1)C(=O)N[C@@H](CC(N)=O)C(N)=O)[C@@H](C)CC [RH5_008] (Ac-DEYNTKKKKLIKCIKNHENDFN-NH2)
IC50 [5, 12]: 2.6 µM
IC50 [2, 9]: 5.14 µM
IC50 [3, 10]: 1 µM

CC[C@H](C)[C@H](NC(=O)[C@H](Cc1ccc(O)cc1)NC(=O)[C@H](CCC(=O)O)NC(=O)[C@H](CC(=O)O)NC(=O)[C@H](Cc1ccc(O)cc1)NC(C)=O)C(=O)N[C@@H](Cc1c[nH]cn1)C(=O)N[C@@H](CCCCN)C(=O)N[C@@H](CC(C)C)C(=O)N[C@H](C(=O)N[C@@H](CC(C)C)C(=O)N[C@@H](CO)C(=O)N[C@H](C(=O)N[C@@H](CCCCN)C(=O)N[C@@H](CO)C(=O)N[C@@H](CCCCN)C(=O)N[C@@H](CC(N)=O)C(=O)N[C@@H](CC(C)C)C(=O)N[C@@H](CC(N)=O)C(=O)N[C@@H](CCCCN)C(=O)N[C@@H](CC(=O)O)C(=O)N[C@@H](CC(C)C)C(=O)N[C@@H](CO)C(N)=O)C(C)C)[C@@H](C)CC [RH5_009] (Ac-YDEYIHKLILSVKSKNLNKDLS-NH2)
IC50 [5, 12]: 6.46 µM
IC50 [1, 8]: 0.381 µM
IC50 [2, 9]: 0.01 µM
IC50 [3, 10]: 0.043 µM
IC50 [7]: 10.5 µM
IC50 [4, 11]: 88.8 µM
